{
  "source": "patent US11510888B2",
  "about": "“Alleviating oxidative stress disorders with PUFA derivatives” (Retrotope, Inc., priority 2009, dated 2022)",
  "key": {"[1]": {"tested_on": "coq null mutants (Q-less yeast)", "conditions": "for protection in the yeast model: compared with D4-linolenic acid", "description": "FIG. 3. […] Yeast coq3, coq7 and coq9 null mutants were prepared in the W303 yeast genetic background (WT). Yeast strains were grown in YPD medium (1% Bacto-yeast extract, 2% Bacto-peptone, 2% dextrose) and harvested while in log phase growth (OD600nm=0.1-1.0). Cells were washed twice with sterile water and resuspended in phosphate buffer (0.10 M sodium phosphate, pH 6.2, 0.2% dextrose) to an OD600nm=0.2. Samples were removed and 1:5 serial dilutions starting at 0.20 OD/ml were plated on YPD plate medium, to provide a zero time untreated control (shown in top left panel). The designated fatty acids were added to 200 uM final concentration to 20 ml of yeast in phosphate buffer. At 2 h, 4 h, and 16 h samples were removed, 1:5 serial dilutions prepared, and spotted onto YPD plate medium. Pictures were taken after 2 days of growth at 30° C.\nFIG. 4. […] The fatty acid sensitive assay was performed as described in FIG. 6-1, except that 100 ul aliquots were removed at 1, 2, and 4 h and, following dilution, spread onto YPD plates. Pictures were taken after 2 to 2.5 days, and the number of colonies counted. Yeast strains include Wild type (circles), atp2 (triangles), or coq3 (squares); Fatty acid treatments include oleic C18:1 (solid line), linolenic, C18:3, n-3 (dashed line) or 11,11,14,14-D4-linolenic, C18:3, n-3, (dotted line).\nQ-less yeast (coq mutants) provide an ideal system to assess in vivo autoxidation of fatty acids. Coenzyme Q (ubiquinone or Q) serves as a small lipophilic antioxidant as well as an electron shuttle in the respiratory chain of the mitochondrial inner membrane. Ten S. cerevisiae genes (COQ1-COQ10) are required for coenzyme Q biosynthesis and function, and the deletion of any results in respiratory deficiency (Tran U C, Clarke C F. Mitochondrion 2007; 75,S62).\nA plate dilution assay can be used to assess PUFA sensitivity. This assay can be performed by spotting serial five-fold dilutions of aliquots onto YPD plate media (FIG. 3). The sensitivity of the different strains can be observed by visual inspection of the density of cells in each spot."}, "WT (W303) yeast": {"tested_on": "WT (W303) yeast", "conditions": "200 μM, 4 h incubation", "protocol": "Uptake of exogenously supplied fatty acids by yeast. WT (W303) yeast were harvested at log phase and incubated in the presence of 200 μM of the designated fatty acid for either 0 or 4 h.\nChromatograms of the yeast extracts subjected to GC-MS analyses. The different traces represent the 0 and 4 h incubations, respectively. The peak area of Each FAME (C18:1, C18:3 and D4-linolenic) was divided by the peak area of the C17:0 standard, quantified with a calibration curve.\nWild-type yeast were harvested during log phase growth and incubated in the presence of exogenously added fatty acid (for 0 or 4 h) in the presence of phosphate buffer plus 0.20% dextrose, as described for the fatty acid sensitivity assay. Cells were harvested, washed twice with 10 ml sterile water, and the yeast cell pellets were then processed by alkaline methanolysis as described above. The fatty acids are detected as methylesters (FAMEs) following GC-MS with C17:0 added as an internal standard (FIG. 6). The amounts of 18:3 and D4 detected after 4 h incubation were extrapolated from the calibration curve."}, "[2]": {"conditions": "mouse, in vivo; cited from earlier work"}, "[3]": {"tested_on": "coq null mutants (Q-less yeast)", "conditions": "cited from earlier work; for sensitivity of Q-less yeast to fatty acid treatment: compared with wild-type parental strain"}, "[4]": {"tested_on": "wild-type (strain W303-1B) cells", "conditions": "four hour treatment; cited from earlier work"}},
  "data": [
    {"smiles": "[2H]C([2H])(/C=C\\C/C=C\\CC)C/C=C\\CCCCCCC(=O)O", "note": "[11, 11-D2-linolenic acid, 11,11-Dideutero-cis,cis,cis-octadeca-8,12,15-trienoic acid]", "values": [
      {"measurement": "protection in the yeast model", "setting": "[1]", "result": "comparable protection"}
    ]},
    {"smiles": "[2H]C([2H])(/C=C\\CC)/C=C\\CC/C=C\\CCCCCCC(=O)O", "note": "[14, 14-D2-linolenic acid, 14,14-Dideutero-cis,cis,cis-octadeca-8,12,15-trienoic acid]", "values": [
      {"measurement": "protection in the yeast model", "setting": "[1]", "result": "comparable protection"}
    ]},
    {"smiles": "[2H]C([2H])(/C=C\\CC)/C=C\\C([2H])([2H])/C=C\\CCCCCCCC(=O)O", "note": "[D4-linolenic acid, 11,11,14,14-Tetradeutero-cis,cis,cis-9,12,15-Octadecatrienoic acid]", "values": [
      {"measurement": "viability of cells compared with oleic acid treatment", "setting": "[1]; quantitative colony counting", "result": "similar"},
      {"measurement": "incorporation of exogenously added fatty acid by yeast", "setting": "WT (W303) yeast", "result": "avidly incorporate"}
    ]},
    {"smiles": "CCCCC/C=C\\C/C=C\\CCCCCCCC(=O)O", "note": "[LA, (9Z,12Z)-9,12-Octadecadienoic acid]", "values": [
      {"measurement": "time at which higher-order PUFA concentration peaks in brain", "setting": "[2]", "result": "≤ 8", "unit": "h"}
    ]},
    {"smiles": "CCCCC/C=C\\C/C=C\\C/C=C\\C/C=C\\CCCC(=O)O", "note": "[arachidonic acid]", "values": [
      {"measurement": "sensitivity of Q-less yeast to fatty acid treatment", "setting": "[3]", "result": "hypersensitive"}
    ]},
    {"smiles": "CC/C=C\\C/C=C\\C/C=C\\CCCCCCCC(=O)O", "note": "[linolenic acid, (9Z,12Z,15Z)-9,12,15-Octadecatrienoic acid]", "values": [
      {"measurement": "viable Q-less (coq2, coq3, and coq5) yeast mutants", "setting": "[3]; following a four hour treatment", "result": "Less than 1%"},
      {"measurement": "viability / cell killing of coq mutants", "setting": "[1]; 200 uM fatty acid, plate dilution assay", "result": "dramatic loss of viability"},
      {"measurement": "reduction of viability of the coq mutants", "setting": "[1]; quantitative colony counting, treatment for 4 h", "result": "more than 100 fold"},
      {"measurement": "time at which higher-order PUFA concentration peaks in brain", "setting": "[2]", "result": "≤ 8", "unit": "h"},
      {"measurement": "wild-type cells remaining viable", "setting": "[4]", "result": 70, "unit": "%"},
      {"measurement": "incorporation of exogenously added fatty acid by yeast", "setting": "WT (W303) yeast", "result": "avidly incorporate"}
    ]},
    {"smiles": "CCCCCCCC/C=C\\CCCCCCCC(=O)O", "note": "[oleic acid]", "values": [
      {"measurement": "sensitivity of Q-less yeast to fatty acid treatment", "setting": "[3]", "result": "behave the same as the wild-type parental strain"}
    ]}
  ]
}
